Usually MIC stands for the lowest concentration found to suppress growth. A word on the ED50: it is the dose that gives a 50% effect, or the effect in half of the subjects. Read a high ED50 as a need for a large dose. What is called LD50 is the dose at which mortality reaches 50%. Low values mean a more toxic substance, high ones a less toxic substance.

Structures are written as SMILES. In brackets after ≈: the same amount, converted by molar mass.

Data set [1] has as its system C. albicans 4711E. Description: in vitro antifungal screen, MIC by two-fold serial dilution. The data set is classed as cell-based, Candida albicans. Here is the method: (§1) The antifungal activity of the compounds of formula (I) may be determined using conventional in vitro and in vivo screens. Thus, the in vitro evaluation of the anti-fungal activity of compounds of the invention was performed on liquid or solid medium by the anti-fungal two-fold serial dilution technique of determining the minimum inhibitory concentration (MIC) of anti-fungal agent that inhibited development of growth after 24 to 48 hours of incubation at 37° C. In practice, a series of agar plates or broth microdilution panels containing two-fold dilutions of anti-fungal agent tested were inoculated with a standard culture of a clinically relevant pathogen, for example, Candida albicans. The agar plates or broth microdulution panels were then examined for the presence or absence of growth of the fungus and the appropriate MIC values were noted.
(§2) Compounds of formula (I) have been tested for anti fungal activity in a standard in vitro screen and the minimum inhibiting concentration (MIC; μg/ml) determined for each compound against a variety of clinically relevant pathogens.

In data set [2] the test system is C. albicans CL-236. Described as above. The format is cell-based, Candida albicans. Here is the method: as §1, §2
Data set [3] deals with C. glabrata 2375E. The data set is described as above. The data set is classed as cell-based, Candida glabrata. Here is the method: as §1, §2
Data set [4] deals with C. glabrata 522. The data set is described as above. The format is cell-based, Candida glabrata. As to the method: as §1, §2
The test system of data set [5] is C. tropicalis 2808E. The data set is described as above. The format is cell-based, Candida tropicalis. Here is the method: as §1, §2
The test system of data set [6] is C. pseudotropicalis 2371E. The description is as above. The data set is classed as cell-based, Candida pseudotropicalis. As to the method: as §1, §2
Data set [7] concerns C. parapsilosis 2372E. The description is as above. The format is cell-based, Candida parapsilosis. As to the method: as §1, §2
The subject of data set [8] is C.albicans 4711E. Description: system candidiasis test in mice. The conditions noted are these: administered orally, system candidiasis test (C.albicans 4711E) in mice. The format is in vivo. As to the method:
The fungicidal activity of the compounds of formula (I) may also be determined in conventional tests in animals e.g. rats and mice. For example the lethal systems candidiasis test in mice.
(§3) The compounds of the invention are essentially non-toxic at therapeutically useful levels. For example, the compound of Example 2 when admistered orally in a system candidiasis test (C.albicans 4711E) in mice, has an ED50 value of 9.0 mg/kg. The LD50 value for the compound of example 2, in female mice is >300 mg/kg iv.

Data set [9] in a line: toxicity (LD50) in female mice. The note with it: iv. The format is in vivo. As to the method:
as §3

Regarding `C=CCN1CC(C)OC(OCC23CC4C(C)CCC4C4(C=O)CC2C=C(C(C)C)C43C(=O)O)C1` [Example 2, [1R-(1α,3aβ,4β,4aβ,7β, 7aα,8aβ)]8a-[(2R,6R)-(4-allyl-6-methyl-morpholin-2-yl)-oxymethyl]-4-formyl-4,4a,5,6,7,7a,8,8a-octahydro-7-methyl-3-(1-methylethyl)-1,4-methano-s-indacene-3a(1H)-carboxylic acid], the MIC was 0.008 µg/mL (≈ 0.017 µM) in data set [1]; 0.03 µg/mL (≈ 0.0636 µM) in data set [2]; 0.5 µg/mL (≈ 1.06 µM) in [3]; 0.5 µg/mL (≈ 1.06 µM) in data set [4]; 0.03 µg/mL (≈ 0.0636 µM) in data set [5]; 0.004 µg/mL (≈ 0.00848 µM) in data set [6]. In data set [7], this molecule displayed a minimum inhibitory concentration (MIC) of over 125 µg/mL. Further, in [8], the median effective dose (ED50) is given as 9.0 mg/kg. For the same molecule, the 50% lethal dose (LD50) in data set [9] is reported as over 300 mg/kg.

Source of the values: US6410528B1, “Morpholino ethers” (Glaxo Wellcome S.A., priority 1998, dated 2002).
